Data on ten compounds can be found in ChEMBL document CHEMBL1201862, “PubChem BioAssay data set” (2004).

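Dose response: 5 concentrations. Exposure: 48 h. Format: 96-well plates. Endpoint: linear interpolation; highest concentration if not reached. GI50 is the concentration that inhibits growth by half.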 Active and inactive are the calls of the source. Cut-off read from the data, not from the text of the source: active = GI50 up to about 1.1 µM and inactive = higher. Starred links: 1 amine or outer side, 2 acyl side, 3 side chain; linkers in the order of their positions; H or OH if unused. Positions of bridges follow the written chain, without caps; N, C: chain ends. Non-standard residues stand in square brackets, D forms with d. Residues, ends and D or L forms follow the SMILES beside them. *: point of attachment. X40 = CC[C@H](C)[C@@H](N[*:1])[C@@H](O)CC(=O)[*:2]; NMeY = CN[C@@H](Cc1ccc(O)cc1)C(=O)O; dNMeL = CN[C@H](CC(C)C)C(=O)O; Hiv = CC(C)[C@H](O)C(=O)O; Pyruvoyl = CC(=O)C(=O)*

What all share (test): NCI tumour cell line growth inhibition, 48 h
The subject of assay [1] is SK-OV-3.
The test system of assay [2] is HCT-15.
The test system of assay [3] is OVCAR-3.
The test system of assay [4] is PC-3.
Assay [5] relates to UACC-62.
The test system of assay [6] is OVCAR-8.
The test system of assay [7] is 786-0.
For assay [8], the system named is EKVX.
For assay [9], the system named is LOX IMVI.
Assay [10] relates to KM12.
Assay [11] concerns MDA-N.
The test system of assay [12] is IGROV-1.
The subject of assay [13] is MDA-MB-231.
Assay [14] relates to SR.
Assay [15] concerns T47D.
Assay [16] relates to NCI-H23.
Assay [17] deals with OVCAR-4.
The subject of assay [18] is SF-295.
Assay [19] deals with A549.
The subject of assay [20] is SN12C.

Regarding `COC(=O)N1CC2(CO)C3CC=C(C(=O)Nc4ccccc4Br)C2C1C3Br` (stereo not drawn), the GI50 is > 50 µM (inactive) in assay [1]; greater than 50 µM in assay [2]; > 50 µM (inactive) in assay [3]; > 50 µM (inactive) in assay [4]; > 50 µM (inactive) in assay [5]; > 50 µM (inactive) in [6]. The GI50 in assay [7], in assay [8], in assay [9], in assay [10], in assay [11] and in assay [12] was > 50 µM (inactive) in each case. Further, the GI50 in assay [13], in [14], in assay [15], in assay [16], in assay [17] and in assay [18] was > 50 µM (inactive) throughout. Also, the GI50 in [19] was > 50 µM (inactive).
`CC[C@H](C)[C@H]1NC(=O)[C@@H](NC(=O)[C@@H](CC(C)C)N(C)C(=O)[C@@H]2CCCN2C(=O)C(C)=O)[C@@H](C)OC(=O)[C@H](Cc2ccc(OC)cc2)N(C)C(=O)[C@@H]2CCCN2C(=O)[C@H](CC(C)C)NC(=O)[C@H](C(C)C)OC(=O)C[C@@H]1O` (Pyruvoyl-P[dNMeL]T[X40][Hiv]LP[NMeY](Me); ester 3-C): the GI50 in [1] was 0.00528 µM (active); in [2] it was 0.0252 µM; in assay [3], 0.00577 µM (active); in [4], 0.0046 µM (active); in assay [5] it was 0.00374 µM (active); in assay [6], 0.006 µM (active). The GI50 in assay [7] is 0.00361 µM (active); in assay [8], 0.0031 µM (active); in assay [9] it was 0.00428 µM (active); in assay [10], 0.00148 µM (active); in assay [11], 0.00467 µM (active); in [12], 0.00471 µM (active). Besides, the GI50 was 0.0138 µM (active) in assay [13]; 0.001 µM (active) in assay [14]; 0.00404 µM (active) in assay [15]; 0.00455 µM (active) in assay [16]; 0.00562 µM (active) in assay [17]; 0.00718 µM (active) in assay [18]. Besides, the GI50 in assay [20] is 0.0043 µM (active); in assay [19] it was 0.00454 µM (active).
Take `COC(=O)C1(Cc2cccc(C)c2)Cc2c(C)cccc2C1=O` (stereo not drawn): the GI50 was 58.6 µM (inactive) in assay [1]; 32.1 µM in assay [2]; 24.5 µM (inactive) in [3]; 27.2 µM (inactive) in assay [4]; 46.8 µM (inactive) in assay [5]; 80.7 µM (inactive) in assay [6]. For the same compound, the GI50 was 93.8 µM (inactive) in assay [7]; 29.1 µM (inactive) in assay [8]; 50.1 µM (inactive) in assay [9]; 28.1 µM (inactive) in [10]; 14.3 µM (inactive) in assay [11]; 46.9 µM (inactive) in [12]. Also, the GI50 in assay [13] is 52.8 µM (inactive); in assay [14], > 100 µM (inactive); in assay [15], 28.4 µM (inactive); in assay [16] it was 37.5 µM (inactive); in [17] it was 41.7 µM (inactive); in assay [18], 38.2 µM (inactive). The results for the GI50 in assay [20] and in [19] were 44.9 µM (inactive) and 38.6 µM (inactive), respectively.
For the compound `O=c1cc(CN2CCCCC2)nc2ccc3c(O)cc(CN4CCCCC4)nc3n12`, the GI50 in assay [1] was 48.4 µM (inactive); in [2], greater than 100 µM; in [3] it was > 100 µM (inactive); in assay [4] it was > 100 µM (inactive); in assay [5], > 100 µM (inactive); in assay [6], > 100 µM (inactive). Moreover, the GI50 in assay [7], in assay [8], in assay [9], in [10], in [11] and in assay [12] was > 100 µM (inactive) in each case. Also, the GI50 in [13], in assay [14], in assay [15], in [16], in [17] and in assay [18] was > 100 µM (inactive) in each case. Further, the GI50 in [20] and in assay [19] was > 100 µM (inactive) throughout.
With `O=C1C=C/C(=N/c2cccc3c(/N=C4/C=CC(=O)O4)cccc23)O1`, the GI50 was > 100 µM (inactive) in assay [1]; 37.3 µM in assay [2]; 51.6 µM (inactive) in assay [3]; 48 µM (inactive) in assay [4]; 34.4 µM (inactive) in [5]; 20 µM (inactive) in assay [6]. The GI50 in assay [7] was 19.4 µM (inactive); in assay [8], 16.8 µM (inactive); in assay [9], 27.8 µM (inactive); in assay [10] it was > 100 µM (inactive); in assay [11], 27.3 µM (inactive); in assay [12], 58.5 µM (inactive). Also, the GI50 in assay [13] is 69.5 µM (inactive); in assay [14], 19.8 µM (inactive); in assay [15], 33.7 µM (inactive); in [16], 50.4 µM (inactive); in assay [17], 39.4 µM (inactive); in assay [18], > 100 µM (inactive). Moreover, the GI50 in assay [20] is 29.9 µM (inactive); in assay [19], > 100 µM (inactive).
`O=C1N=C(c2ccccc2)O/C1=C\c1ccccc1`: the GI50 in assay [1] was > 100 µM (inactive); in [2], greater than 100 µM; in assay [3], > 100 µM (inactive); in assay [4], > 100 µM (inactive); in assay [5], > 100 µM (inactive); in assay [6], > 100 µM (inactive). Moreover, the GI50 in [7], in assay [9], in assay [10], in [11], in [12] and in assay [13] was > 100 µM (inactive) in each case. For the same compound, the GI50 in assay [14], in assay [15], in [16], in assay [17], in assay [18] and in [20] was > 100 µM (inactive) in each case. Further, the GI50 in assay [19] is > 100 µM (inactive).
Consider `CCC1=[N+](CC)CCN1CC`, for which the GI50 was > 100 µM (inactive) in assay [1]; greater than 100 µM in [2]; > 100 µM (inactive) in assay [3]; > 100 µM (inactive) in assay [4]; > 100 µM (inactive) in [6]; > 100 µM (inactive) in assay [7]. Moreover, the GI50 in assay [8], in assay [9], in assay [10], in assay [11], in [12] and in assay [13] was > 100 µM (inactive) each time. For the same compound, the GI50 in [14], in assay [15], in assay [16], in [17], in assay [18] and in [20] was > 100 µM (inactive) throughout. The GI50 in assay [19] was > 100 µM (inactive).
`CCOC(=O)C(Cc1c2ccccc2cc2ccccc12)(NC(C)=O)C(=O)OCC`: the GI50 in assay [1] is > 100 µM (inactive); in [2], greater than 49.3 µM; in assay [3], > 64.7 µM (inactive); in assay [4], 50 µM (inactive); in assay [6] it was 67.6 µM (inactive); in [7], 76.4 µM (inactive). Further, the GI50 was > 100 µM (inactive) in assay [8]; > 100 µM (inactive) in [9]; 97.7 µM (inactive) in assay [10]; > 83.9 µM (inactive) in assay [11]; > 45 µM (inactive) in [12]; > 23.1 µM (inactive) in assay [13]. For the same compound, the GI50 in [14] is 70.5 µM (inactive); in [15], 35.8 µM (inactive); in assay [16] it was > 100 µM (inactive); in assay [17], 40.4 µM (inactive); in assay [18], > 65.9 µM (inactive); in assay [20], > 100 µM (inactive). Also, the GI50 in assay [19] was > 72.8 µM (inactive).
For `CN(C)C(=O)Oc1ccc[n+](C)c1` [PYRIDOSTIGMINE BROMIDE], the GI50 in [2] is greater than 100 µM; in assay [3] it was > 100 µM (inactive); in assay [4] it was > 100 µM (inactive); in [5], > 100 µM (inactive); in assay [6], > 100 µM (inactive); in assay [7], > 100 µM (inactive). Also, the GI50 in assay [8], in assay [9], in assay [10], in assay [11], in assay [12] and in [13] was > 100 µM (inactive) in each case. The GI50 in assay [14] was 8.28 µM (inactive); in assay [15], > 100 µM (inactive); in [16] it was > 100 µM (inactive); in assay [17], > 100 µM (inactive); in assay [18], > 100 µM (inactive); in assay [20], > 100 µM (inactive).
`Cc1ccc(C)n1-n1c(Cc2ccccc2)n[nH]c1=O`: the GI50 is > 100 µM (inactive) in [1]; greater than 100 µM in assay [2]; > 100 µM (inactive) in assay [3]; > 100 µM (inactive) in assay [4]; > 100 µM (inactive) in assay [5]; > 100 µM (inactive) in assay [6]. Moreover, the GI50 in [7] is > 100 µM (inactive); in assay [8] it was 61.7 µM (inactive); in [9], > 100 µM (inactive); in assay [10], > 100 µM (inactive); in [11], > 100 µM (inactive); in [12], > 100 µM (inactive). Moreover, the GI50 in [13], in assay [14], in assay [15], in assay [17], in assay [18] and in [20] was > 100 µM (inactive) in each case. Also, in [19], the GI50 is > 100 µM (inactive).
